Experiments:
Assay type in all cases: cell-based, human
[1] = system: PBMC obtained from MM patients; test: 12-day recall IFNγ ELISPOT with PBMC of MM patients; conditions: for specific T-cell recognition, MM patients positive/tested / specific T-cell recognition, share of MM patients: 12-day recall IFNγ ELISPOT, PBMC of MM patients, HLA class I peptide
Method: PBMC from MM patients and HVs were cultured as described previously. In brief, for CD8^+ T-cell stimulation, PBMC were pulsed with 1 μg/ml per peptide and cultured for 12 days adding IL-4 and IL-7 on day 0 and 1 as well as IL-2 on day 3, 5, 7 and 9. HLA-A*02 (KLFEKVKEV) (SEQ ID NO. 231) and B*07 (KPSEKIQVL) (SEQ ID NO. 232) restricted control peptides derived from benign tissues (HV-exclusive HLA ligands) served as negative control. Peptide-stimulated PBMC were analyzed by ELISPOT assays on day 12. For CD4^+ T-cell stimulation, culture was performed as described for CD8^+ T cells except for 2 modifications: pulsing was carried out with 10 μg/ml of HLA class II peptide and no IL-4 or IL-7 was added.
IFNγ ELISPOT assays were carried out as described previously. In brief, 96-well nitrocellulose plates (Millipore) were coated with […] IFNγ mAb (Mabtech) and incubated over night at 4° C. Plates were blocked with 10% human serum for 2 h at 37° C. 2.5×10^5 cells/well of pre-stimulated PBMC were pulsed with 1 μg/ml (HLA class I) or 2.5 μg/ml (HLA class II) peptide and incubated for 24-26 h. Readout was performed according to manufacturer's instructions. PHA was used as positive control. HLA-A*02 (KLFEKVKEV) (SEQ ID NO. 231) and B*07 (KPSEKIQVL) (SEQ ID NO. 232) restricted control peptides derived from benign tissues (HV-exclusive HLA ligands) served as negative control. Spots were counted using an ImmunoSpot S5 analyzer (CTL). T cell responses were considered to be positive when >10 spots/well were counted and the mean spot count per well was at least 3-fold higher than the mean number of spots in the negative control wells (according to the cancer immunoguiding program (CIP) guidelines).

[2] = system: CD8+ T cells from one healthy individual; test: aAPC priming and tetramer staining, CD8+ T cells of a healthy individual
Method: (§1) For the generation of artificial antigen presenting cells (aAPC), 4×10^6 streptavidincoated polystyrene particles (Bangs Laboratories) per ml were resuspended in PBE (PBS/BSA/ETDA, Gibco/Sigma Aldrich/Lonza) containing 200 pM biotinylated MHCpeptide monomer and 20 nM anti-human biotinylated CD28 antibody and incubated at room temperature for 30 min. After washing, the aAPCs were stored at 4° C. prior to use. CD8^+ T cells from MM patients and HV were enriched by positive selection using magnetic cell sorting (Miltenyi Biotec). Stimulations were initiated in 96-well plates with 1×10^6 T cells plus 2×10^5 aAPCs in 200 μl T-cell medium complemented with 5 ng/ml human IL-12 (PromoKine). […] IL-2 (R&D Systems) were added on day 5. aAPC stimulation was repeated on day 10, for a total of 3 cycles.
(§2) The frequency of peptide-specific CD8^+ T cells was determined on a FACS Canto II cytometer (BD Bioscience) by staining with anti-CD8 (Biolegend) and HLA:peptidetetramer-PE as described previously. Staining with tetramers containing the CMV pp65 A*02 peptide NLVPMVATV (SEQ ID No. 236) served as positive control, tetramers containing irrelevant, non-primed A*02 restricted control peptides as negative controls. […]

[3] = system: CD8+ T cells from one MM patient; test: aAPC priming and tetramer staining, CD8+ T cells of an MM patient; conditions: T cells from an MM patient without previous T-cell reactivity for P2
Method: as §1, §2

[4] = system: MM.1S cells; test: HLA class I ligand presentation upon carfilzomib treatment on MM.1S cells (LC-MS/MS); design: key to modulation upon carfilzomib-treatment 24 #1 / modulation upon carfilzomib-treatment 24 #2 / modulation upon carfilzomib-treatment 24 #3 / modulation upon carfilzomib-treatment 48 #1 / modulation upon carfilzomib-treatment 48 #2 / modulation upon carfilzomib-treatment 48 #3: −1: significantly down-modulated; 0: not signifcant/not detected; 1: significantly up-modulated; conditions: MM.1S cells, vs mock-treated controls; for modulation upon carfilzomib-treatment 24 #1 / modulation upon carfilzomib-treatment 24 #2 / modulation upon carfilzomib-treatment 24 #3: 24 h after carfilzomib treatment (100 nM, 1 h); for modulation upon carfilzomib-treatment 24 #1 / modulation upon carfilzomib-treatment 48 #1: biological replicate #1; for modulation upon carfilzomib-treatment 24 #2 / modulation upon carfilzomib-treatment 48 #2: biological replicate #2; for modulation upon carfilzomib-treatment 24 #3 / modulation upon carfilzomib-treatment 48 #3: biological replicate #3; for modulation upon carfilzomib-treatment 48 #1 / modulation upon carfilzomib-treatment 48 #2 / modulation upon carfilzomib-treatment 48 #3: 48 h after carfilzomib treatment (100 nM, 1 h)
Method: HLA class I and II molecules were isolated using standard immunoaffinity purification as described using the pan-HLA class I specific mAb W6/32, the pan-HLA class II specific mAb T039 and the HLA-DR specific mAB L243 (produced in house).
HLA ligand extracts were analyzed in 5 technical replicates as described previously. In brief, peptide samples were separated by nanoflow HPLC (RSLCnano, ThermoFisher) using a 50 μm×25 cm PepMap RSLC column (Thermo Fisher) and a gradient ranging from 2.4 to 32.0% acetonitrile over the course of 90 min. Eluting peptides were analyzed in an online coupled LTQ Orbitrap XL mass spectrometer (Thermo Fisher) using a top 5 CID (collision induced dissociation) fragmentation method.
Data processing was performed as described previously. In brief, the Mascot search engine (Mascot 2.2.04; Matrix Science, London, UK) was implemented to search the human proteome as comprised in the Swiss-Prot database (20,279 reviewed protein sequences, September 2013) without enzymatic restriction. Potential mutated HLA ligands were searched implementing a database containing the human proteome concatenated with proteins containing single amino acid variants (SAVs) listed in the COSMIC database (http://cancer.sanger.ac.uk/cosmic/). Only recurrent SAVs described in 2 or more samples of hematological origin were included. Oxidized methionine was allowed as a dynamic modification. The false discovery rate was estimated using the Percolator algorithm and set to 5%. Peptide lengths were limited to 8-12 amino acids for HLA class I and 12-25 amino acids for HLA class II. Protein inference was disabled, allowing for multiple protein annotations of peptides. HLA annotation was performed using SYFPEITHI [46] or an extended in-house database. Experimental validation of peptide identifications and HLA annotations was performed by mass spectrometric and functional characterization of synthetic peptides for a subset of peptides.
The inventors quantitatively assessed HLA class I ligand presentation during proteasome inhibitor therapy. Observed was a considerable plasticity of the HLA class I ligandome after treatment with carfilzomib with 17.9±1.1% of MM.1S ligands and 11.2±0.7% of U266 ligands (mean of three biological replicates ±s.d.) showing significant modulation (fold-change ≥4, Po0.01 after Benjamini-Hochberg correction) at t24 h compared with mock-treated controls. Briefly, Cultured MCLs (MM.1S and U266) and primary myeloma samples were incubated with carfilzomib (100 nM, Kyprolis®, available, e.g., from Onyx Pharmaceuticals, Inc.) as an example for a proteasome inhibitor for a 1-h period, followed by three washes in PBS (Gibco) and recultured for additional 24 or 48 h. Controls were incubated with vehicle control (glucose 5%) for 1 h, followed by identical washing and incubation for 24 or 48 h. Experiments were conducted in three biological replicates where indicated.

[5] = system: U266 cells; test: HLA class I ligand presentation upon carfilzomib treatment on U266 cells (LC-MS/MS); design: key to modulation upon carfilzomib-treatment 24 #1 / modulation upon carfilzomib-treatment 24 #2 / modulation upon carfilzomib-treatment 24 #3 / modulation upon carfilzomib-treatment 48 #1 / modulation upon carfilzomib-treatment 48 #2 / modulation upon carfilzomib-treatment 48 #3: −1: significantly down-modulated; 0: not signifcant/not detected; 1: significantly up-modulated; conditions: U266 cells, vs mock-treated controls; for modulation upon carfilzomib-treatment 24 #1 / modulation upon carfilzomib-treatment 24 #2 / modulation upon carfilzomib-treatment 24 #3: 24 h after carfilzomib treatment (100 nM, 1 h); for modulation upon carfilzomib-treatment 24 #1 / modulation upon carfilzomib-treatment 48 #1: biological replicate #1; for modulation upon carfilzomib-treatment 24 #2 / modulation upon carfilzomib-treatment 48 #2: biological replicate #2; for modulation upon carfilzomib-treatment 24 #3 / modulation upon carfilzomib-treatment 48 #3: biological replicate #3; for modulation upon carfilzomib-treatment 48 #1 / modulation upon carfilzomib-treatment 48 #2 / modulation upon carfilzomib-treatment 48 #3: 48 h after carfilzomib treatment (100 nM, 1 h)
How it was run: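 MM.1S and U266 myeloma cells were pulsed with 100 nM carfilzomib for 1 h, washed and recultured 24 or 48 h; controls got 5% glucose vehicle. HLA class I ligands were immunopurified with W6/32 and analysed by nanoLC-MS/MS (CID, 5 technical replicates, 5% FDR, 8-12-mers). Modulation versus mock was scored as fold-change ≥4 with Benjamini-Hochberg-corrected significance.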

Sequence | specific T-cell recognition, MM patients positive/tested [1] | specific T-cell recognition, share of MM patients [1] [%] | P2-tetramer positive CD8+ T cells after in vitro priming ([2]; HV-derived CD8+ T cells, 3 cycles of aAPC priming) [%] | tetramer-positive T-cell populations ex vivo ([2]; ex vivo, without priming) [%] | P2-tetramer positive CD8+ T cells after priming [3] [%] | memory T-cell responses, MM patients positive/tested ([1]; IFNγ ELISPOT, HLA class II peptide, MM patients) | modulation upon carfilzomib-treatment 24 #1 [4] | modulation upon carfilzomib-treatment 24 #2 [4] | modulation upon carfilzomib-treatment 24 #3 [4] | modulation upon carfilzomib-treatment 48 #1 [4] | modulation upon carfilzomib-treatment 48 #2 [4] | modulation upon carfilzomib-treatment 48 #3 [4] | modulation upon carfilzomib-treatment 24 #1 [5] | modulation upon carfilzomib-treatment 24 #2 [5] | modulation upon carfilzomib-treatment 24 #3 [5] | modulation upon carfilzomib-treatment 48 #1 [5] | modulation upon carfilzomib-treatment 48 #2 [5] | modulation upon carfilzomib-treatment 48 #3 [5]
SLLEQGLVEA (listed as Homo sapiens) [SEQ ID NO: 177] | 1/8 | 13 | 0.403 | ≤ 0.1 | 0.236 | – | – | – | – | – | – | – | – | – | – | – | – | –
KAMEAASSL (listed as Homo sapiens) [SEQ ID NO: 82] | 2/16 | 13 | – | – | – | – | – | – | – | – | – | – | – | – | – | – | – | –
NSVIIVDKNGRLV (listed as Homo sapiens) [SEQ ID NO: 237] | – | – | – | – | – | 2/5 | – | – | – | – | – | – | – | – | – | – | – | –
KPQPRPQTL | – | – | – | – | – | – | 1 | 1 | 1 | 0 | 0 | 0 | 0 | 0 | 0 | 0 | 0 | 0
TPAVGRLEV | – | – | – | – | – | – | 0 | 0 | 0 | 0 | 0 | 0 | 0 | 0 | 0 | 0 | 0 | 0
